{"source": "patent US5032599A", "about": "“N-(pyrrol-l-yl)pyridinamines” (Hoechst-Roussel Pharmaceuticals Inc., priority 1988, dated 1991)", "test_system": "Scopolamine Induced Memory Deficit", "assay": "Dark Avoidance Assay (reversal of scopolamine induced memory deficit)", "format": "in vivo", "conditions": "mice, retest after 24 hours", "method": "Dark Avoidance Asssay In this assay mice are tested for their ability to remember an unpleasant stimulus for a period of 24 hours. A mouse is placed in a chamber that contains a dark compartment; a strong incandescent light drives it to the dark compartment, where an electric shock is administered through metal plates on the floor. The animal is removed from the testing apparatus and tested again, 24 hours later, for the ability to remember the electric shock. If scolopamine, an anticholinergic that is known to cause memory impairment, is administered before an animal's initial exposure to the test chamber, the animal re-enters the dark compartment shortly after being placed in the test chamber 24 hours later. This effect of scopolamine is blocked by an active test compound, resulting in a greater interval before re-entry into the dark compartment. The results for an active compound are expressed as the percent of a group of animals in which the effect of scopolamine is blocked, as manifested by an increased interval between being placed in the test chamber and re-entering the dark compartment.", "note": "Where a name gives a salt, the structure may show the parent alone."}
{"smiles": "CN(c1ccncc1)n1cccc1C=O", "note": "[1-[N-Methyl-N-(4-pyridinyl)]aminopyrrole-2-carboxaldehyde maleate]", "values": [{"measurement": "% of Animals With Scopolamine Induced Memory Deficit Reversed", "setting": "1.25 mg/kg by body weight", "value": 60, "unit": "%"}]}
{"smiles": "c1ccn(Nc2ccncc2)c1", "note": "[N-(1H-Pyrrol-1-yl)-4-pyridinamine]", "values": [{"measurement": "% of Animals With Scopolamine Induced Memory Deficit Reversed", "setting": "0.63 mg/kg by body weight", "value": 21, "unit": "%"}]}
{"smiles": "CCN(c1ccncc1)n1cccc1Cl.Cl", "note": "[N-(2-Chloro-1H-pyrrol-1-yl)-N-ethyl-4-pyridinamine hydrochloride]", "values": [{"measurement": "% of Animals With Scopolamine Induced Memory Deficit Reversed", "setting": "2.5 mg/kg by body weight", "value": 33, "unit": "%"}]}
{"smiles": "CN(c1ccncc1)n1cccc1.Cl", "note": "[N-Methyl-N-(1H-pyrrol-1-yl)-4-pyridinamine hydrochloride]", "values": [{"measurement": "% of Animals With Scopolamine Induced Memory Deficit Reversed", "setting": "2.5 mg/kg by body weight", "value": 43, "unit": "%"}]}
{"smiles": "CC[C@@H]1C(=O)OC[C@@H]1Cc1cncn1C", "note": "[Pilocarpine, reference compound]", "values": [{"measurement": "% of Animals With Scopolamine Induced Memory Deficit Reversed", "setting": "5.0 mg/kg by body weight", "value": 23, "unit": "%"}]}
{"smiles": "CC(O)c1cccn1N(C)c1ccncc1", "note": "(stereo not drawn) [α-methyl-1-[[N-(4-pyridinyl)-N-methyl]amino]-1H-pyrrole-2-methanol maleate]", "values": [{"measurement": "% of Animals With Scopolamine Induced Memory Deficit Reversed", "setting": "5.0 mg/kg by body weight", "value": 19, "unit": "%"}]}
